SMILES strings stand for the structures. Where a SMILES comes first, the peptide text is derived from it. Bridges are numbered along the chain shown (N, C = ends).

For assay [1], the target named is T1, rat α3β2 nAChR (Rattus norvegicus, UniProt P04757+P12390).
T1 construct: expressed in transfected cells; host or cells: Xenopus laevis oocytes injected with cRNA; plasmids from J. Michael McIntosh (University of Utah)
As to the kind of experiment: cell-based.

The target in assay [2] is T2, rat α7 nAChRs (Rattus norvegicus, UniProt Q05941).
T2 construct: expressed in transfected cells; host or cells: Xenopus laevis oocytes injected with cRNA; plasmids from J. Michael McIntosh (University of Utah)
As to the kind of experiment: cell-based. In kind it is cell-based.

Assay [3] has as its target T3, rat α6/α3β4 nAChRs (Rattus norvegicus, UniProt P04757+P12392+P43143).
T3 construct: expressed in transfected cells; host or cells: Xenopus laevis oocytes injected with cRNA; plasmids from J. Michael McIntosh (University of Utah)
The assay is classed as cell-based.

T2 sequence (Q05941 23-502): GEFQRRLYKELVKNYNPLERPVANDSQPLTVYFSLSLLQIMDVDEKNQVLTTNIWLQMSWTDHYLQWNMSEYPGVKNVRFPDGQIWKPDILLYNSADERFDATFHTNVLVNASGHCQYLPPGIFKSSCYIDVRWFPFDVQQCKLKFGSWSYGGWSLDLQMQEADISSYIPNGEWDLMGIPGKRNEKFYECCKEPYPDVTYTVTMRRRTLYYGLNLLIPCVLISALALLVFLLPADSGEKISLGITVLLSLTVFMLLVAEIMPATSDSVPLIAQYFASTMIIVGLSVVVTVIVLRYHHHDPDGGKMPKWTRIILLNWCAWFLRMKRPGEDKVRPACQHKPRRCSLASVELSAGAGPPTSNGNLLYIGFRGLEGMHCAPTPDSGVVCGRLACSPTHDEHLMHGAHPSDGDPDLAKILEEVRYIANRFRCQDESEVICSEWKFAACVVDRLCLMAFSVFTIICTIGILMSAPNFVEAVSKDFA
T1 sequence (P04757 26-499 limits assumed): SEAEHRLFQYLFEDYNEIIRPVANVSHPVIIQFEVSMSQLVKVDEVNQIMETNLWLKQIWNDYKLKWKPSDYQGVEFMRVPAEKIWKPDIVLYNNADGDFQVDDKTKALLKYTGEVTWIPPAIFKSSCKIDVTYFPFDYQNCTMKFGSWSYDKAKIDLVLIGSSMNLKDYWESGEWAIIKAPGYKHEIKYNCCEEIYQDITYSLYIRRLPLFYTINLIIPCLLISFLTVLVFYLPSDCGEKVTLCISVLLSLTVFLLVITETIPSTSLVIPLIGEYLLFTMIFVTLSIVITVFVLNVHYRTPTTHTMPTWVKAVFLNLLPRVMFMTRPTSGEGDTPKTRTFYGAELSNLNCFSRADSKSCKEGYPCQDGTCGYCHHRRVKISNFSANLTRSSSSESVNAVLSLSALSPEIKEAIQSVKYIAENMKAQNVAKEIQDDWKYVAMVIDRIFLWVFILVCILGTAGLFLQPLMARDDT
T1 sequence (P12390 25-500 limits assumed): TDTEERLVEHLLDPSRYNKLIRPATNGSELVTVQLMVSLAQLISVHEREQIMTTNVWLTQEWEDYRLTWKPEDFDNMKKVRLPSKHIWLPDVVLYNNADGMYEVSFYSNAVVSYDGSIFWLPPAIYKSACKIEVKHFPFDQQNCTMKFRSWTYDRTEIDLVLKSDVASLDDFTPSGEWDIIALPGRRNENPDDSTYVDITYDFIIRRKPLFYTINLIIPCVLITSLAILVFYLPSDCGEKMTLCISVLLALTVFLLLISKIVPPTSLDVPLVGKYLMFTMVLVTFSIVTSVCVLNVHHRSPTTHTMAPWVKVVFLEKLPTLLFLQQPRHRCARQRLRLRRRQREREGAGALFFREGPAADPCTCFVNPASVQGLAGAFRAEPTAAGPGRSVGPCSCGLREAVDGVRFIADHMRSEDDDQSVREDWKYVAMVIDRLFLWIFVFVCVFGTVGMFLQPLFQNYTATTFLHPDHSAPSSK
T3 sequence (P43143+P04757 fused with the stated changes): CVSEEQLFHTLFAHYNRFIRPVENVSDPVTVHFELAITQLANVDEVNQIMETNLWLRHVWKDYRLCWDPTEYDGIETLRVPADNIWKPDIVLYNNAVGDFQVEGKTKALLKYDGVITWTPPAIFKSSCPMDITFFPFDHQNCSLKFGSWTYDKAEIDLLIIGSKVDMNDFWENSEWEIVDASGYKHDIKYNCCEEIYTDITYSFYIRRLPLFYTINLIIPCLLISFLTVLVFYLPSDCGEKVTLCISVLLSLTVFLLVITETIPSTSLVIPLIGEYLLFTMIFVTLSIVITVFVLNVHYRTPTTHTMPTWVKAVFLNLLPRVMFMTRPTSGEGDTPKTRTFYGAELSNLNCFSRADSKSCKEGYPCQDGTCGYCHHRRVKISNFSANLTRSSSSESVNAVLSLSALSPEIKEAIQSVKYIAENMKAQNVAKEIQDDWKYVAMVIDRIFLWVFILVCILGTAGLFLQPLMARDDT
T3 sequence (P12392 21-495): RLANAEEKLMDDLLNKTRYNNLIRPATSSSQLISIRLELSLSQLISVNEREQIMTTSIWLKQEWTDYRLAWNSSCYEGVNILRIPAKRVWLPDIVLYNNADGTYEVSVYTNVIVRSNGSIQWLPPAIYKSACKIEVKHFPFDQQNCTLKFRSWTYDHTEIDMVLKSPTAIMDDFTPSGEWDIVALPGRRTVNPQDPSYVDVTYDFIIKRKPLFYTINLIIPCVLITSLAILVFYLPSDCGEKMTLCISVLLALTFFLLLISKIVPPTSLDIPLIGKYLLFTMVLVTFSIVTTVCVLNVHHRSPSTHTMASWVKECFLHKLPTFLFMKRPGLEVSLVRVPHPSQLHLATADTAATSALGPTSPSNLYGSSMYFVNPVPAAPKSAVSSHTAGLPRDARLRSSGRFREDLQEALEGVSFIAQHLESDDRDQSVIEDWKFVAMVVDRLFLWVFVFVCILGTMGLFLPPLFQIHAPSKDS

As for `C[C@@H]1NC(=O)[C@@H]2CSSC[C@H](NC(=O)CN)C(=O)N[C@@H](CSSC[C@@H](C(N)=O)NC(=O)[C@H](Cc3c[nH]cn3)NC(=O)[C@H](CCC(=O)O)NC(=O)[C@H](Cc3c[nH]cn3)NC1=O)C(=O)N[C@@H](CO)C(=O)N[C@@H](CC(N)=O)C(=O)N1CCC[C@H]1C(=O)N1CCC[C@H]1C(=O)N2` [[Q1G, ΔR14]LvIB] (H-GCCSNPPCAHEHC-NH2; disulfide 2-8, 3-13), the inhibition rate in assay [1] turned out to be 97 ± 2%. Also, in assay [2], the “Hill Slope” value was 0.99 (0.8–1.19), the “inhibition rate of ACh-evoked current” value is recorded as 98 ± 0.12% and the “time to ~90% current restoration after block (recovery/washout)” value is ≤ 17 min. In addition, the inhibition rate in assay [3] was found to be 88 ± 5%.

The record behind these values is PMC11122421 (Marine Drugs, 2024).
